From ChEMBL document CHEMBL4033634, “Synthesis and biological evaluation of novel aromatic and heterocyclic bis-sulfonamide Schiff bases as carbonic anhydrase I, II, VII and IX inhibitors” (Bioorg Med Chem, 2017)
pKi: −log10 of the molar value.

Each compound was assayed against Carbonic anhydrase 1 (Homo sapiens, UniProt P00915) (assay: Inhibition of human carbonic anhydrase 1 incubated for 10 mins by stopped flow CO2 hydrase assay).
Chain of Carbonic anhydrase 1 (P00915 whole entry): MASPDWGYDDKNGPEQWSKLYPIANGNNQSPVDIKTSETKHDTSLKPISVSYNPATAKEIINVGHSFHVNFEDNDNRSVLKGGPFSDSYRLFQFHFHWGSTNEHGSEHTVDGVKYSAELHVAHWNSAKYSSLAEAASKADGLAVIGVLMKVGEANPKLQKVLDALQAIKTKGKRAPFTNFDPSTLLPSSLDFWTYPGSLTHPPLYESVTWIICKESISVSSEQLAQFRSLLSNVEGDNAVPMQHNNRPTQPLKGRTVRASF
With `NS(=O)(=O)c1cccc(/N=C/c2ccc(/C=N/c3cccc(S(N)(=O)=O)c3)o2)c1` the pKi was < 5.00.

These compounds were tested against Carbonic anhydrase 9 (Homo sapiens, UniProt Q16790) (assay: Inhibition of human carbonic anhydrase 9 incubated for 10 mins by stopped flow CO2 hydrase assay).
`NS(=O)(=O)c1cccc(/N=C/c2ccc(/C=N/c3cccc(S(N)(=O)=O)c3)o2)c1` showed a pKi of 6.29. Compound `NS(=O)(=O)c1nnc(/N=C/c2ccc(/C=N/c3nnc(S(N)(=O)=O)s3)cc2)s1` has a pKi of 7.60. `NS(=O)(=O)c1ccc(/N=C/c2ccc(/C=N/c3ccc(S(N)(=O)=O)cc3)o2)cc1` gave a pKi of 7.12. Work on `NS(=O)(=O)c1ccc(CC/N=C/c2ccc(/C=N/CCc3ccc(S(N)(=O)=O)cc3)cc2)cc1` yielded a pKi of 6.58. With `NS(=O)(=O)c1cccc(/N=C/c2cccc(/C=N/c3cccc(S(N)(=O)=O)c3)c2)c1` the pKi was 6.17. `NS(=O)(=O)c1nnc(/N=C/c2ccc(/C=N/c3nnc(S(N)(=O)=O)s3)o2)s1` gave a pKi of 8.23. Compound `NS(=O)(=O)c1ccc(/N=C/c2cccc(/C=N/c3ccc(S(N)(=O)=O)cc3)c2)cc1` has a pKi of 7.03. `NS(=O)(=O)c1ccc(CC/N=C/c2ccc(/C=N/CCc3ccc(S(N)(=O)=O)cc3)o2)cc1` showed a pKi of 6.82. `NS(=O)(=O)c1nnc(/N=C/c2cccc(/C=N/c3nnc(S(N)(=O)=O)s3)c2)s1` was tested, and the pKi was 9.30. In the case of `NS(=O)(=O)c1ccc(/N=C/c2ccccc2/C=N/c2ccc(S(N)(=O)=O)cc2)cc1`, the pKi was 7.66. `NS(=O)(=O)c1ccc(CC/N=C/c2cccc(/C=N/CCc3ccc(S(N)(=O)=O)cc3)c2)cc1` was tested, and the pKi was 6.50. `NS(=O)(=O)c1cccc(/N=C/c2ccccc2/C=N/c2cccc(S(N)(=O)=O)c2)c1` gave a pKi of 7.05. With `NS(=O)(=O)c1nnc(/N=C/c2ccccc2/C=N/c2nnc(S(N)(=O)=O)s2)s1` the pKi was 8.24. `NS(=O)(=O)c1ccc(/N=C/c2ccc(/C=N/c3ccc(S(N)(=O)=O)cc3)cc2)cc1` was tested, and the pKi was 6.03. Compound `NS(=O)(=O)c1cccc(/N=C/c2ccc(/C=N/c3cccc(S(N)(=O)=O)c3)cc2)c1` has a pKi of 5.83. With `NS(=O)(=O)c1ccc(CC/N=C/c2ccccc2/C=N/CCc2ccc(S(N)(=O)=O)cc2)cc1` the pKi was 7.75.
